Results reported in patent US20240374761A1, “ANIMAL MODEL HAVING HOMOLOGOUS RECOMBINATION OF MOUSE PTH1 RECEPTOR” (RADIUS PHARMACEUTICALS, INC., priority 2021, published 2024).
Entries after “also recorded” stand apart in the source; their conditions may differ. Like-named read-outs stand apart in the source and are kept apart here.

Columns and labels:
[1] = molecular target: T1, endogenous rodent PTH receptor (WT C57BL/6 mice) (Mus musculus, UniProt P41593); assay: Blood ionized calcium (Ca++) response to PTH ligand analog injection in wild-type mice; assay type: in vivo; details: 40 nmol/kg subcutaneous
T1 construct: WT mice expressing the endogenous rodent PTH receptor; endogenous in cells; host or cells: wild-type C57BL/6(n) mice, in vivo (bone and kidney)
T1 sequence (P41593 27-591): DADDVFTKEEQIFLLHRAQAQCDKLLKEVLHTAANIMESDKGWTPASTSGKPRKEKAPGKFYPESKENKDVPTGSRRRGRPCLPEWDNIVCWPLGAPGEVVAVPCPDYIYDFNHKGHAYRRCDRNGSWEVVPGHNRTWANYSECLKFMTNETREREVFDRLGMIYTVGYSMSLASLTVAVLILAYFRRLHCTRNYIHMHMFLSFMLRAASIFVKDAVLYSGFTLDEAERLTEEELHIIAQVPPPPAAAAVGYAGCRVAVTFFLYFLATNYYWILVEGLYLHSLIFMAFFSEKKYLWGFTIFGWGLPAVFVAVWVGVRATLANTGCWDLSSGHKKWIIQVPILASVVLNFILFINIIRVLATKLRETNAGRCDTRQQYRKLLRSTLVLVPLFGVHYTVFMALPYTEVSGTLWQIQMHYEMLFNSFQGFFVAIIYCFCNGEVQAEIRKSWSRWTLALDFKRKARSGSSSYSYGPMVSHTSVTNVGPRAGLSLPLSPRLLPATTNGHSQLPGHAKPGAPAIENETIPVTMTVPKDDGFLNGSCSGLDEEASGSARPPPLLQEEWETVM
Method: (§1) The utility of the hPTH1R-KI mice of the present disclosure as a model for predicting the behavior of different PTH and PTHrP analog peptides was evaluated. Ligand-induced PTH1R signaling in bone and kidney results in a rapid increase in blood levels of free ionized calcium (Ca^++) and a decrease in blood levels of inorganic phosphorus (Pi); changes that occur through the promotion of the release of Ca and Pi from bone mineral stores, the reabsorption of Ca from the renal filtrate, and a suppression of Pi reabsorption in the kidney. Thus, blood Ca^++ and Pi levels were measured in WT and hPTH1R-KI mice before and at times after injection of PTH ligands.
Blood ionized calcium (Ca^++) levels were measured in homozygous mice comprising a heterologous polynucleotide comprising human Parathyroid Hormone 1 Receptor (hPTH1R) exons 4 to 16 (hereinafter “hPTH1R-KI” mice), and WT C57BL/6(n) mice, at age 10 weeks. Mice were treated in accordance with the ethical guidelines adopted by the Massachusetts General Hospital (MGH). […]
Blood was collected from a ˜2 mm tail vein incision and placed into heparinized capillary tube (Multi-cap-S, Siemens Healthcare Diagnostics Inc, Catalog No. 05656514) just prior to injection (t=0), and at 1, 2, 4 and 8 hours after injection, then immediately analyzed for pH-adjusted ionized calcium using a Siemens RapidLab 348 Ca^2+/pH analyzer. […]

[2] = molecular target: T2, human PTH1R (hPTH1R-KI mice) (Homo sapiens, UniProt Q03431); assay: Blood ionized calcium (Ca++) response to PTH ligand analog injection in hPTH1R-KI mice; assay type: in vivo, mouse; details: 40 nmol/kg subcutaneous
T2 construct: Met593 (followed by a stop codon); expressed in transfected cells; host or cells: homozygous hPTH1R-KI C57BL/6 mice (knock-in at the mouse Pth1r locus), in vivo
T2 sequence (Q03431 23-593 E90Y/S91D/E92V/E93P/K95Y/E96A): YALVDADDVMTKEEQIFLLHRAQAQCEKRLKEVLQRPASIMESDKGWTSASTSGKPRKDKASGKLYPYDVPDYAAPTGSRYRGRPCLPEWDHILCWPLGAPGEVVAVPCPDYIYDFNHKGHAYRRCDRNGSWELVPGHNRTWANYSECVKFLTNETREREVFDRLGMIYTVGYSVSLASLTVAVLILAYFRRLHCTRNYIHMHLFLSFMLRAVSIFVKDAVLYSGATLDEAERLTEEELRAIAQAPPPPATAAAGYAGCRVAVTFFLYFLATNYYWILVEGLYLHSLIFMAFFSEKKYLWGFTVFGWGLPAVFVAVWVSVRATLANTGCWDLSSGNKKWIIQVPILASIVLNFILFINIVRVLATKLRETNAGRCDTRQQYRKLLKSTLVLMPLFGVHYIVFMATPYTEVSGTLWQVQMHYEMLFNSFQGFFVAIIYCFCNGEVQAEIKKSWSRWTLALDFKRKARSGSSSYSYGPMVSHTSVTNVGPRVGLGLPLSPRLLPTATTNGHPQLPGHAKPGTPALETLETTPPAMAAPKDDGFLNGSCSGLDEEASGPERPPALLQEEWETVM
Method: as §1
Blood ionized calcium (Ca^++) levels were measured in homozygous mice comprising a heterologous polynucleotide comprising human Parathyroid Hormone 1 Receptor (hPTH1R) exons 4 to 16 (hereinafter “hPTH1R-KI” mice), and WT C57BL/6(n) mice, at age 10 weeks. Mice were treated in accordance with the ethical guidelines adopted by the Massachusetts General Hospital (MGH). Mice were injected subcutaneously in the interscapular region with vehicle (5 mM citrate, 150 mM NaCl, 0.05% Tween80, pH 5.0), or vehicle containing either PTH(1-34), PTHrP(1-36) or abaloparatide, each peptide at a dose of 40 nmol/kg of body weight, with five animals per group.
Blood was collected from a ˜2 mm tail vein incision and placed into heparinized capillary tube (Multi-cap-S, Siemens Healthcare Diagnostics Inc, Catalog No. 05656514) just prior to injection (t=0), and at 1, 2, 4 and 8 hours after injection, then immediately analyzed for pH-adjusted ionized calcium using a Siemens RapidLab 348 Ca^2+/pH analyzer.
Data was processed using Microsoft Excel 2016 and GraphPad Prism 8.0. Data is represented as means+/−standard error, and statistical significance was assessed using a two-tailed Students t-test. Two replicate experiments were performed on separated days for each set of 20 hPTH1R-KI and 20 WT control mice n hPTH1R-KI mice. The replicate experiments gave essentially the same result for the two groups, and the data (n=10) were combined as means+SEM.

[3] = molecular target: T2, human PTH1R (hPTH1R-KI mice); assay: Serum inorganic phosphorus (Pi) response to PTH ligand analog injection in hPTH1R-KI mice; assay type: in vivo; details: 40 nmol/kg
Method: To assess changes to blood Pi in response to PTH ligand injection, 10-week-old hPTH1R-KI and wild-type mice were injected with PTH(1-34), PTHrP(1-36), or Abaloparatide (see Example 13) each at a dose of 40 nmol/kg (n=5 mice per group). Tail vein blood was collected into a 1 mL microcentrifuge tubes containing 3 μL 0.5 mM EDTA on ice at t=0, 1, 2, 4, and 8 hours post-injection. The blood samples were centrifuged at 8,000 rpm at 4° C. for 15 minutes, and plasma supernatant was collected and frozen at −80° C. Plasma phosphate was analyzed using a colorimetric phosphate assay kit (AbCam. UK, Catalog No. ab65622).

PTH1R (WT mice) = molecular target: T3, PTH1R (WT mice) (Mus musculus, UniProt P41593); assay: Antagonist response: blood calcium after co-injection with PTH(1-34) in WT mice; assay type: in vivo; details: 3-month-old WT mice, 40 nmol/kg subcutaneous
T3 construct: WT mice expressing the endogenous rodent PTH receptor; endogenous in cells; host or cells: wild-type C57BL/6(n) mice, in vivo (bone and kidney)
T3 sequence (P41593 27-591): T1 sequence (P41593 27-591)
Method: (§2) Briefly, to assess the responses to antagonist PTH analogs, 3-month-old WT or hPTH1R-KI mice were injected subcutaneously with either (1) vehicle, (2) vehicle containing PTH(1-34) alone at 40 nmol/kg, or (3) PTH(1-34) at 40 nmol/kg together with an antagonist peptide, LA-PTH(7-36) or [Leu^11,dTrp^12,Trp^23,Tyr^36]-PTHrP(7-36), each antagonist at a dose of 500 nmol/kg (n=5 mice per group). Blood was collected from the tail vein and calcium was measured as described above in Example 13.

[4] = molecular target: T2, human PTH1R (hPTH1R-KI mice); assay: Antagonist response: blood calcium after co-injection with PTH(1-34) in hPTH1R-KI mice; assay type: in vivo, mouse; details: 3-month-old hPTH1R-KI mice, 40 nmol/kg subcutaneous
Method: as §2

[5] = cited from earlier work
[6] = molecular target: T4, RG conformation of the PTH1R (Homo sapiens, UniProt Q03431); details: versus R0 conformation; compared with teriparatide / PTH and PTHrP ligands; cited from earlier work
T4 sequence (Q03431 27-593): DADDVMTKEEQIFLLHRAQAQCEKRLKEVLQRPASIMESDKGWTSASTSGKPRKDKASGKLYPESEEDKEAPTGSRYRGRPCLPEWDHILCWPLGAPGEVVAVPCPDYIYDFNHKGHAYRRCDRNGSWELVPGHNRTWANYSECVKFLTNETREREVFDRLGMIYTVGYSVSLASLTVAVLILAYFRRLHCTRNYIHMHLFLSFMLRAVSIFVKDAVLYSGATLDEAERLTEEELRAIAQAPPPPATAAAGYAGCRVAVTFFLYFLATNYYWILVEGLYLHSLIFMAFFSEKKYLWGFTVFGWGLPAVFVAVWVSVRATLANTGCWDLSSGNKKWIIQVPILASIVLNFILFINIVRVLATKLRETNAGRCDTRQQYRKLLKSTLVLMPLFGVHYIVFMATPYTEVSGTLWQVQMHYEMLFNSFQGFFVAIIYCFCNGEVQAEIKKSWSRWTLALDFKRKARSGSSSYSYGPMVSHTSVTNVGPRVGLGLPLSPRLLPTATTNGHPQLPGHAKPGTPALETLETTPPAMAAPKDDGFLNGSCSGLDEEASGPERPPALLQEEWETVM

[7] = test system: ovariectomy-induced osteopenic rats; details: cited from earlier work
[8] = test system: ovariectomy-induced osteopenic monkeys; details: cited from earlier work

Compound	difference in calcemic response duration compared to the other two ligands [1]	duration of calcemic response [2]	blood Ca++ levels at 4 hours [2]	phosphaturic response profile [3]	serum Pi levels at 2 hours post-injection [3]	blood calcium levels after PTH(1-34) alone (PTH1R (WT mice))	blood calcium levels after PTH(1-34) alone [4]	rate of clearance from the blood ([5]; previous analyses)	binding selectivity for the RG conformation of PTH1R [6]	reversal of bone loss [7]	reversal of bone loss [8]	rate of clearance from the blood ([5]; in vivo)
CC[C@H](C)[C@H](NC(=O)[C@H](CCC(=O)O)NC(=O)[C@H](CO)NC(=O)[C@@H](NC(=O)[C@@H](N)CO)C(C)C)C(=O)N[C@@H](CCC(N)=O)C(=O)N[C@@H](CC(C)C)C(=O)N[C@@H](CCSC)C(=O)N[C@@H](Cc1cnc[nH]1)C(=O)N[C@@H](CC(N)=O)C(=O)N[C@@H](CC(C)C)C(=O)NCC(=O)N[C@@H](CCCCN)C(=O)N[C@@H](Cc1cnc[nH]1)C(=O)N[C@@H](CC(C)C)C(=O)N[C@@H](CC(N)=O)C(=O)N[C@@H](CO)C(=O)N[C@@H](CCSC)C(=O)N[C@@H](CCC(=O)O)C(=O)N[C@@H](CCCN=C(N)N)C(=O)N[C@H](C(=O)N[C@@H](CCC(=O)O)C(=O)N[C@@H](Cc1c[nH]c2ccccc12)C(=O)N[C@@H](CC(C)C)C(=O)N[C@@H](CCCN=C(N)N)C(=O)N[C@@H](CCCCN)C(=O)N[C@@H](CCCCN)C(=O)N[C@@H](CC(C)C)C(=O)N[C@@H](CCC(N)=O)C(=O)N[C@@H](CC(=O)O)C(=O)N[C@H](C(=O)N[C@@H](Cc1cnc[nH]1)C(=O)N[C@@H](CC(N)=O)C(=O)N[C@@H](Cc1ccccc1)C(=O)O)C(C)C)C(C)C [PTH(1-34)]	not seen	more prolonged calcemic response	remained elevated	more prolonged activity in vivo	remained low	expected rise in blood calcium levels	expected rise in blood calcium levels	comparable rates of clearance	–	–	–	–
PTHrP(1-36)	–	more a transient functional response	returned to baseline	–	–	–	–	–	–	–	–	–
abaloparatide: synthetic 34-amino acid PTHrP(1-34)-based analogue, AVSEHQLLHDKGKSIQDLRRRELLEKLLXKLHTA, X is Aib (SEQ ID NO: 22)	–	more a transient functional response	returned to baseline	–	returned to near-vehicle control levels	–	–	–	more selectively than teriparatide; also recorded: greater selectivity	complete reversal of bone loss	complete reversal of bone loss	comparable rates of clearance
